Source: the METLIN SMRT retention time set (Domingo-Almenara et al. 2019)

Assay: gradient 5% acetonitrile 3 min, to 50% in 2 min, to 85% in 15 min, held 3 min, 100 µL/min
Conditions: column: Zorbax Extend-C18 2.1 x 50 mm; eluents: water / acetonitrile, 0.1% formic acid
Outline: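 Retention time was recorded from adduct peaks, which were picked computationally and each inspected manually. Pure standards ran in mixtures of ~100 molecules on HPLC coupled to a quadrupole time-of-flight mass spectrometer, in positive and negative ionization mode, through a Zorbax Extend-C18 column (2.1 × 50 mm, 1.8 μm) at 100 μL/min. Eluents were water and acetonitrile, each with 0.1% formic acid.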

Compared with Cn1c(=O)c(N2CCC(NC(=O)Nc3ccccc3Cl)CC2)nc2ccccc21, CCOC(=O)C1CCN(c2nc(=O)n(CC(=O)Nc3cccc(C)c3)c3ccccc23)CC1 is lower in RP-LC retention time: 904 s for the first, 833 s for the second.

First: COC1CCC12CCN(Cc1ccccn1)CC2 (stereo not drawn)
Second: CC(C)CN1Cc2ccccc2-n2ccnc2C12CCN(C(=O)C1CC1)CC2
The RP-LC retention time of the first is lower: 571 s for the first, 648 s for the second.

First: O=C(NCc1ccc(F)cc1)c1ccc(-c2cccs2)nc1
Second: O=C(Cc1ccc([N+](=O)[O-])cc1)NCc1nnnn1-c1ccc(F)cc1
The RP-LC retention time of the first is higher: 869 s for the first, 701 s for the second.

First: CCc1ccc(Nc2nc(C(=O)NCCC3=CCCCC3)nc3ccccc23)cc1
Second: CCn1cc(-c2nc(CC(=O)NCc3ccc(C)cc3)cs2)c2cccnc21
The RP-LC retention time of the first is higher: 1080 s for the first, 912 s for the second.

First: Cc1cccc(-c2ncccc2CNS(=O)(=O)c2cc(F)ccc2F)c1
Second: CCCn1cc(CCNC(=O)Nc2cccc(C)c2)c2cccnc21
The RP-LC retention time of the first is lower: 738 s for the first, 782 s for the second.

Compared with O=c1c(NCC2CCCCC2)nc2ccncc2n1Cc1ccccc1, O=C(NC1CCCCC1)c1ccc2c(c1)N(Cc1ccccc1)C(=O)CO2 is higher in RP-LC retention time: 784 s for the first, 921 s for the second.

First: COc1ccc(S(=O)(=O)N2CCC(Cc3nncn3-c3ccccc3)CC2)cc1
Second: O=C(N1CCC(Cc2ccc(COCc3ccncc3)cc2)CC1)C1(c2ccccc2)CC1
The RP-LC retention time of the first is lower: 775 s for the first, 795 s for the second.

Compared with O=S(=O)(NCc1ccc(F)cc1)c1ccc(N2CCCCS2(=O)=O)cc1, O=C1CCCc2cc(S(=O)(=O)NCc3cccc(Br)c3)ccc2N1 is lower in RP-LC retention time: 777 s for the first, 764 s for the second.

Going from Cn1nc(-c2nc(C3CC3)no2)c2c1CCN(C(=O)c1c(F)cccc1Cl)C2 to Cn1nc(C(=O)N2CCC(Oc3ccc(-c4noc(C5CC5)n4)cc3)C2)c2ccccc21 (stereo not drawn), the RP-LC retention time rises from 837 s to 1050 s.

Compared with O=C(Cn1cnc2nc(N3CCC(C(=O)NC4CC4)CC3)sc2c1=O)Nc1cccc(Cl)c1, CCCNC(=O)C1CCN(c2ccc(SCC(=O)Nc3cccc(Cl)c3C)nn2)CC1 is lower in RP-LC retention time: 679 s for the first, 678 s for the second.

Going from CCC(=O)NCc1csc(C2CCN(C(=O)c3ccc(Br)cc3)CC2)n1 to CCCC(=O)N1CCCC(c2nc(CNC(=O)C(C)C)cs2)C1 (stereo not drawn), the RP-LC retention time falls from 722 s to 671 s.

Compared with COC(=O)c1ccc(C2CC(=O)NC3=C2C(=O)CC(C)(C)C3)cc1 (stereo not drawn), CCN1c2ccc(C)cc2C(=O)NC12CCN(C(=O)Cc1cccc(OC)c1)CC2 is higher in RP-LC retention time: 675 s for the first, 802 s for the second.

First: CC1CCN(c2cc(-n3cnc(C(=O)NCc4ccc5c(c4)OCO5)c3)ncn2)CC1
Second: CCc1noc(-c2ccnc(-n3cnc(C(=O)NCC(C)C)c3)c2)n1
The RP-LC retention time of the first is lower: 964 s for the first, 983 s for the second.

First: O=C(c1nnc(-c2csc(S(=O)(=O)N3CCN(c4ncccn4)CC3)c2)o1)N1CCCCC1
Second: Cc1ccc(F)cc1S(=O)(=O)N1CCN(c2cnn3c(C)nnc3c2)CC1
The RP-LC retention time of the first is higher: 881 s for the first, 616 s for the second.

Going from Cc1cc(C)n2nc(CN(C(=O)c3ccco3)c3ccc(F)cc3)nc2n1 to Cc1cc(C)n(-c2cc(NCCNC(=O)c3ccc(F)cc3F)ncn2)n1, the RP-LC retention time rises from 715 s to 718 s.

Going from O=C(c1nnn(Cc2ccc(Cl)cc2)c1-n1cccc1)N1CCSCC1 to NC(=O)CSc1nnc(N2CCN(C(=O)c3ccccc3Cl)CC2)s1, the RP-LC retention time falls from 981 s to 596 s.

Compared with Cc1ccc2nc(-c3ccc(C)c(NC(=O)c4cccs4)c3)[nH]c2c1, COc1ccccc1NC(=O)c1cc(=O)n2c(nc3ccccc32)s1 is higher in RP-LC retention time: 681 s for the first, 964 s for the second.

Going from CC(=O)N1CCc2cc(N3CC(C(=O)Nc4ccc(F)cc4C)CC3=O)ccc21 (stereo not drawn) to Cc1cc(Cl)ccc1NC(=O)N1C[C@@H]2C[C@H](NC(=O)c3ccccc3)[C@H]1C2, the RP-LC retention time rises from 690 s to 907 s.

First: CCOc1ccc2nc(NS(=O)(=O)c3ccc4c5c(cccc35)C(=O)N4)sc2c1
Second: CCN1C(=O)c2ccccc2Oc2ccc(C(=O)NCc3cccc(OC)c3)cc21
The RP-LC retention time of the first is lower: 703 s for the first, 921 s for the second.

Compared with COCCNC(=O)c1sc2ncn(CC(=O)N3CCCCC3C)c(=O)c2c1C (stereo not drawn), CCc1noc(NC(C)=O)c1-c1ccc(C)c(S(=O)(=O)NC2CCCCC2)c1 is higher in RP-LC retention time: 679 s for the first, 839 s for the second.

Going from Cc1ccc(-n2c(=O)n(CC(=O)NCCCN(C)C)c3cccnc32)cc1 to CCOc1ccccc1NC(=O)Cn1c(-c2ccccc2)nc(CC)cc1=O, the RP-LC retention time rises from 593 s to 1320 s.

Going from COc1ccc2[nH]cc(CCNC(=O)CN3C(=O)CSc4cccn4-c4ccccc43)c2c1 to CCc1nc2cc(-c3noc(CCc4c[nH]c5ccccc45)n3)ccc2o1, the RP-LC retention time rises from 859 s to 1050 s.

Compared with CCN(C(=O)Cn1ncc2c(c1=O)N(C)C(=O)CS2)c1cccc(C)c1, O=C(Cn1ncccc1=O)Nc1cccc(-c2cn3c(n2)SCC3)c1 is lower in RP-LC retention time: 756 s for the first, 530 s for the second.

First: Cc1ccc(-c2noc(CN3N=NC4C(=O)N(c5ccc(F)c(Cl)c5)C(=O)C43)n2)cc1 (stereo not drawn)
Second: COc1ccc(Cc2nc(-c3ccc4c(c3)ncn4CCN3CCCCC3)no2)cc1
The RP-LC retention time of the first is higher: 1090 s for the first, 626 s for the second.

Going from Cc1cc(C)c(S(=O)(=O)N2CCc3c(c(-c4nnc(-c5ccc(F)cc5)o4)nn3C)C2)cc1C to CCN1CCCn2cc(S(=O)(=O)Nc3ccc(F)c(C)c3)cc2C1=O, the RP-LC retention time falls from 1090 s to 755 s.

First: CCc1nc2cccnc2n1CCN1CCN(C(=O)Nc2ccc(Br)cc2)CC1
Second: CCOC(=O)N1CCN(c2cc(C(=O)O)c3cc(NC(=O)c4ccc(OC)cc4)ccc3n2)CC1
The RP-LC retention time of the first is higher: 631 s for the first, 630 s for the second.

First: O=C(CCc1ccc2nc(-c3ccccc3)[nH]c2c1)NC1CCCC1
Second: O=C(c1ccoc1)N1[C@H]2CC[C@@H]1c1cnc(-c3ccccc3)nc1C2
The RP-LC retention time of the first is lower: 618 s for the first, 837 s for the second.

First: Cc1cc(C)nc(Nc2nc(CC(=O)Nc3nc(C)c(C(=O)N(C)C)s3)cs2)n1
Second: CCOc1ccc2nc(NC3=NCN(CCCOC)CN3)nc(C)c2c1
The RP-LC retention time of the first is lower: 646 s for the first, 668 s for the second.

Compared with O=C(c1ccsc1)N(CCc1ccccc1)Cc1ccccn1, COc1cccc(-c2noc(COC(=O)C3=CN(Cc4ccccc4)S(=O)(=O)N=C3C)n2)c1 is higher in RP-LC retention time: 684 s for the first, 1110 s for the second.

First: CC(=O)O[C@H]1Cc2ccccc2N(C(N)=O)c2ccccc21
Second: O=C(c1c[nH]c2ccccc12)N1CCC(c2nc(-c3ccccc3)no2)C1 (stereo not drawn)
The RP-LC retention time of the first is lower: 782 s for the first, 901 s for the second.

Going from CCCNC(=O)C1CCN(c2ccc(SCC(=O)Nc3ccccc3C(=O)OCC)nn2)CC1 to CCCNC(=O)C1CCCN(c2ccc(SCC(=O)NCc3cc(F)cc(F)c3)nn2)C1 (stereo not drawn), the RP-LC retention time falls from 715 s to 646 s.

First: O=C(CCCSc1ccc(F)cc1)Nc1nnc(Cc2ccc3c(c2)OCO3)o1
Second: CCn1nnc2ccc(-c3noc(-c4cccc(OC)c4)n3)cc21
The RP-LC retention time of the first is lower: 807 s for the first, 1060 s for the second.

Compared with Cc1cc(=O)n(CC(=O)NC2CCCC2)c(N2CCOCC2)n1, CN(CC(=O)NC1CCCC1)S(=O)(=O)c1c[nH]c(C(=O)N2CCCC2)c1 is higher in RP-LC retention time: 599 s for the first, 686 s for the second.

First: CC(C)c1noc(C2(NC(=O)CCC3CCCC3)CCCCC2)n1
Second: Cc1[nH]c(C(=O)N2CCCC(C(=O)NCCCN3CCCCCC3)C2)c(C)c1C(=O)OC(C)C (stereo not drawn)
The RP-LC retention time of the first is higher: 1120 s for the first, 650 s for the second.

Going from O=C(NCc1ccco1)c1ccc(-c2ccc(N3CCSCC3)nc2)cc1 to COc1ccc(-c2cc(N3CCN(C(=O)c4ccc5[nH]ccc5c4)CC3)n[nH]2)cc1, the RP-LC retention time falls from 708 s to 703 s.

First: Cn1c(=O)c(=O)n(C)c2cc(N3CCOCC3)c(NC(=O)c3ccco3)cc21
Second: Cc1nn(C)cc1S(=O)(=O)Nc1c(C)n(C)n(-c2ccccc2)c1=O
The RP-LC retention time of the first is lower: 663 s for the first, 722 s for the second.

First: Cc1cc(OCC(=O)Nc2ccc(F)c(Cl)c2)nc(N2CCN(c3ccccc3)CC2)n1
Second: Cc1ccc2c(c1)-c1onc(C(=O)N3CCN(c4ccccn4)CC3)c1CO2
The RP-LC retention time of the first is higher: 956 s for the first, 747 s for the second.

First: O=S(=O)(Cc1ccccc1F)N1CCc2nnc(C3CC3)n2CC1
Second: CCCS(=O)(=O)N1CCC(c2nc(CCOc3ccc(F)cc3)no2)C1 (stereo not drawn)
The RP-LC retention time of the first is lower: 626 s for the first, 894 s for the second.

Going from O=S(=O)(c1ccc(F)cc1F)N1CC(COc2ccncc2)C2(CCOCC2)C1 (stereo not drawn) to CC(C)c1noc(-c2cccnc2N2CCCN(Cc3ccc(F)cc3Cl)CC2)n1, the RP-LC retention time rises from 613 s to 754 s.

Compared with Cc1nc(C)c2c(n1)N(Cc1cccc(F)c1)C(=O)CC2, CCOC(=O)c1c[nH]c2c(C(=O)OCC)cccc2c1=O is higher in RP-LC retention time: 666 s for the first, 735 s for the second.

Going from O=C(Nc1cccc(C(F)(F)F)c1)Nc1c(-c2ccncc2)nc2ccccn12 to O=C(Cc1c[nH]c2ccccc12)N1CCN(C(=O)c2cc(-c3ccncc3)n[nH]2)CC1, the RP-LC retention time falls from 655 s to 578 s.

First: CN(C)c1ccc(/C=C/c2ccc3ccccc3n2)cc1
Second: COc1ccc(C(=O)NC2CCN(c3nnc4ccc(C(F)(F)F)cn34)CC2)cc1
The RP-LC retention time of the first is higher: 785 s for the first, 751 s for the second.

First: COc1cc(C(=O)NCCc2csc(-c3ccc(Cl)cc3)n2)c([N+](=O)[O-])cc1OC
Second: CC(C)CN1CCn2cc(S(=O)(=O)Nc3ccc(Cl)cc3)cc2C1=O
The RP-LC retention time of the first is higher: 895 s for the first, 848 s for the second.

Compared with CCC(C)NC(=O)N1CC(n2cc(C(=O)NCC3CC3)nn2)C1 (stereo not drawn), Cc1ccc(-n2ncc3c(N4CCN(C)CC4)ncnc32)cc1Cl is lower in RP-LC retention time: 662 s for the first, 607 s for the second.
